Measured values reported in patent US20110166121A1 (LG LIFE SCIENCES LTD., priority 2008, published 2011).
pKi: −log10 of the molar value. Structures can show the parent of a compound that is named as a salt.

Test system: Human platelet aggregation caused by ADP
Assay: Inhibition of ADP-induced platelet aggregation (Mimic-human PRP)
Type: cell-based
Settings: 20 μM ADP, human platelet concentrate diluted with PPP, absorption at 595 nm
Method in brief: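 Human PRP diluted with PPP to 3–4×10^8 platelets/mL was preincubated 20 min at room temperature with compound (0.01–30 μM, DMSO), then stimulated with 20 μM ADP. Aggregation read as A595 increase at 3 min versus 0 and 20 μM ADP controls; Ki from sigmoidal non-linear regression.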

Compound | pKi
CCCc1cc2c(N3CCn4c(nnc4C(F)(F)F)C3)nc(N3CC(N)C(O)C3)nc2s1 (stereo not drawn) [Example 1-114, 4-Amino-1-[6-propyl-4-(3-trifluoromethyl-5,6-dihydro-8H-[1,2,4]triazolo[4,3-a]pyrazin-7-yl)-thieno[2,3-d]pyrimidin-2-yl]-pyrrolidin-3-ol] | 8.42
CCCc1cc2c(N3CCn4c(nnc4C(F)(F)F)C3)nc(OC(C)CNC=O)nc2s1 (stereo not drawn) [Example 9-74, N-{2-[6-Propyl-4-(3-trifluoromethyl-5,6-dihydro-8H-[1,2,4]triazolo[4,3-a]pyrazin-7-yl)-thieno[2,3-d]pyrimidin-2-yloxy]-propyl}-formamide] | 8.42
CCCc1cc2c(N3CCn4c(nnc4C(F)(F)F)C3)nc(N[C@H]3CCN(C(=O)C(C)C)C3)nc2s1 [Example 8-15, 2-Methyl-1-{(S)-3-[6-propyl-4-(3-trifluoromethyl-5,6-dihydro-8H-[1,2,4]triazolo[4,3-a]pyrazin-7-yl)-thieno[2,3-d]pyrimidin-2-ylamino]-pyrrolidin-1-yl}-propan-1-one] | 8.15
CCCc1cc2c(N3CCn4c(nnc4C(F)(F)F)C3)nc(N3CC[C@H](NC(=O)Nc4ccc(F)c(F)c4)C3)nc2s1 [Example 9-16, 1-(3,4-Difluoro-phenyl)-3-{(S)-1-[6-propyl-4-(3-trifluoromethyl-5,6-dihydro-8H-[1,2,4]triazolo[4,3-a]pyrazin-7-yl)-thieno[2,3-d]pyrimidin-2-yl]-pyrrolidin-3-yl}-urea] | 6.06
CCCC(=O)N[C@@H]1CCCN(c2nc(N3CCn4c(nnc4C(F)(F)F)C3)c3cc(CCC)sc3n2)C1 [Example 7-7, Hydrochloric acid salt of N-{(R)-1-[6-Propyl-4-(3-trifluoromethyl-5,6-dihydro-8H-[1,2,4]triazolo[4,3-a]pyrazin-7-yl)-thieno[2,3-d]pyrimidin-2-yl]-piperidin-3-yl}-butyramide] | 7.20
CCCC(=O)N1CCN(c2nc(N3CCn4c(nnc4C(F)(F)F)C3)c3cc(CCC)sc3n2)CC1 [Example 7-15, Hydrochloric acid salt of 1-{4-[6-Propyl-4-(3-trifluoromethyl-5,6-dihydro-8H-[1,2,4]triazolo[4,3-a]pyrazin-7-yl)-thieno[2,3-d]pyrimidin-2-yl]-piperazin-1-yl}-butan-1-one] | 6.22
CCCc1cc2c(N3CCn4c(nnc4C(F)(F)F)C3)nc(OCCNC(=O)C(C)C)nc2s1 [Example 7-31, N-{2-[6-Propyl-4-(3-trifluoromethyl-5,6-dihydro-8H-[1,2,4]triazolo[4,3-a]pyrazin-7-yl)-thieno[2,3-d]pyrimidin-2-yloxy]-ethyl}-isobutyramide] | 7.92
CCCc1cc2c(N3CCn4c(nnc4C(F)(F)F)C3=O)nc(OCCC(=O)O)nc2s1 [Example 9-59, 3-[4-(8-Oxo-3-trifluoromethyl-5,6-dihydro-8H-[1,2,4]triazolo[4,3-a]pyrazin-7-yl)-6-propyl-thieno[2,3-d]pyrimidin-2-yloxy]-propionic acid] | < 5.00
CCCc1cc2c(N3CCn4c(nnc4C(F)(F)F)C3)nc(-n3cc(NC(C)=O)cn3)nc2s1 [Example 9-57, N-{1-[6-Propyl-4-(3-trifluoromethyl-5,6-dihydro-8H-[1,2,4]triazolo[4,3-a]pyrazin-7-yl)-thieno[2,3-d]pyrimidin-2-yl]-1H-pyrazol-4-yl}-acetamide] | 6.39
CCCC(=O)N1CC[C@H](Nc2nc(N3CCn4c(nnc4C(F)(F)F)C3)c3cc(CCC)sc3n2)C1 [Example 8-14, 1-{(S)-3-[6-Propyl-4-(3-trifluoromethyl-5,6-dihydro-8H-[1,2,4]triazolo[4,3-a]pyrazin-7-yl)-thieno[2,3-d]pyrimidin-2-ylamino]-pyrrolidin-1-yl}-butan-1-one] | 8.52
CCCc1cc2c(N3CCn4c(nnc4C(F)(F)F)C3)nc(N[C@H]3CCN(C(C)=O)C3)nc2s1 [Example 8-13, 1-{(S)-3-[6-Propyl-4-(3-trifluoromethyl-5,6-dihydro-8H-[1,2,4]triazolo[4,3-a]pyrazin-7-yl)-thieno[2,3-d]pyrimidin-2-ylamino]-pyrrolidin-1-yl}-ethanone] | 8.52
CCCc1cc2c(N3CCn4c(nnc4C(F)(F)F)C3)nc(OCCN(C)C(=O)OC)nc2s1 [Example 9-95, Methyl-{2-[6-propyl-4-(3-trifluoromethyl-5,6-dihydro-8H-[1,2,4]triazolo[4,3-a]pyrazin-7-yl)-thieno[2,3-d]pyrimidin-2-yloxy]-ethyl}-carbamic acid methyl ester] | 8.14
CCCc1cc2c(N3CCn4c(nnc4C(F)(F)F)C3)nc(N3CC[C@H](NC(=O)Cc4ccccn4)C3)nc2s1 [Example 1-121, N-{(S)-1-[6-Propyl-4-(3-trifluoromethyl-5,6-dihydro-8H-[1,2,4]triazolo[4,3-a]pyrazin-7-yl)-thieno[2,3-d]pyrimidin-2-yl]-pyrrolidin-3-yl}-2-pyridin-2-yl-acetamide] | 7.72
CCCc1cc2c(N3CCn4c(nnc4C(F)(F)F)C3)nc(Nc3cn[nH]c3)nc2s1 [Example 9-58, [6-Propyl-4-(3-trifluoromethyl-5,6-dihydro-8H-[1,2,4]triazolo[4,3-a]pyrazin-7-yl)-thieno[2,3-d]pyrimidin-2-yl]-(1H-pyrazol-4-yl)-amine] | 7.66
CCCc1cc2c(N3CCn4c(nnc4C(F)(F)F)C3)nc(OCCN(C)C(C)=O)nc2s1 [Example 9-97, N-Methyl-N-{2-[6-propyl-4-(3-trifluoromethyl-5,6-dihydro-8H-[1,2,4]triazolo[4,3-a]pyrazin-7-yl)-thieno[2,3-d]pyrimidin-2-yloxy]-ethyl}-acetamide] | 8.22
CCCC(=O)NCCOc1nc(N2CCn3c(nnc3C(F)(F)F)C2)c2cc(CCC)sc2n1 [Example 7-30, N-{2-[6-Propyl-4-(3-trifluoromethyl-5,6-dihydro-8H-[1,2,4]triazolo[4,3-a]pyrazin-7-yl)-thieno[2,3-d]pyrimidin-2-yloxy]-ethyl}-butyramide] | 8.14
CCCc1cc2c(N3CCn4c(nnc4C(F)(F)F)C3)nc(N3CC[C@@H](NC=O)C3)nc2s1 [Example 9-22, N-{(R)-1-[6-Propyl-4-(3-trifluoromethyl-5,6-dihydro-8H-[1,2,4]triazolo[4,3-a]pyrazin-7-yl)-thieno[2,3-d]pyrimidin-2-yl]-pyrrolidin-3-yl}-formamide] | 7.82
CCCc1cc2c(N3CCn4c(nnc4C(F)(F)F)C3)nc(OCCN3CCCC3=O)nc2s1 [Example 3-62, 1-{2-[6-Propyl-4-(3-trifluoromethyl-5,6-dihydro-8H-[1,2,4]triazolo[4,3-a]pyrazin-7-yl)-thieno[2,3-d]pyrimidin-2-yloxy]-ethyl}-pyrrolidin-2-one] | 8.72
CCCc1cc2c(N3CCn4c(nnc4C(F)(F)F)C3)nc(N3CC[C@H](NC(=O)C(F)(F)F)C3)nc2s1 [Example 1-106, 2,2,2-Trifluoro-N-{(S)-1-[6-propyl-4-(3-trifluoromethyl-5,6-dihydro-8H-[1,2,4]triazolo[4,3-a]pyrazin-7-yl)-thieno[2,3-d]pyrimidin-2-yl]-pyrrolidin-3-yl}-acetamide] | 7.80
CCCc1cc2c(N3CCn4c(nnc4C(F)(F)F)C3)nc(OCCCNC(C)=O)nc2s1 [Example 9-87, N-{3-[6-Propyl-4-(3-trifluoromethyl-5,6-dihydro-8H-[1,2,4]triazolo[4,3-a]pyrazin-7-yl)-thieno[2,3-d]pyrimidin-2-yloxy]-propyl}-acetamide] | 6.37
CCCc1cc2c(N3CCn4c(nnc4C(F)(F)F)C3)nc(OC[C@@H]3CCN(C(C)=O)C3)nc2s1 [Example 8-34, 1-{(R)-3-[6-Propyl-4-(3-trifluoromethyl-5,6-dihydro-8H-[1,2,4]triazolo[4,3-a]pyrazin-7-yl)-thieno[2,3-d]pyrimidin-2-yloxymethyl]-pyrrolidin-1-yl}-ethanone] | 7.35
CCCc1cc2c(N3CCn4c(nnc4C(F)(F)F)C3)nc(N3CC[C@H](NC(=O)C4CCCCC4)C3)nc2s1 [Example 9-9, Cyclohexanecarboxylic Acid {(S)-1-[6-propyl-4-(3-trifluoromethyl-5,6-dihydro-8H-[1,2,4]triazolo[4,3-a]pyrazin-7-yl)-thieno[2,3-d]pyrimidin-2-yl]-pyrrolidin-3-yl}-amide] | 6.52
CCCc1cc2c(N3CCn4c(nnc4C(F)(F)F)C3)nc(OC[C@@H]3CCCN3)nc2s1 [Example 7-37, Hydrochloric acid salt of 7-[6-Propyl-2-((S)-1-pyrrolidin-2-ylmethoxy)-thieno[2,3-d]pyrimidin-4-yl]-3-trifluoromethyl-5,6,7,8-tetrahydro-[1,2,4]triazolo[4,3-a]pyrazine] | 6.55
CCCc1cc2c(N3CCn4c(nnc4C(F)(F)F)C3)nc(-n3cncn3)nc2s1 [Example 9-43, 7-(6-Propyl-2-[1,2,4]triazol-1-yl-thieno[2,3-d]pyrimidin-4-yl)-3-trifluoromethyl-5,6,7,8-tetrahydro-[1,2,4]triazolo[4,3-a]pyrazine] | 6.48
CCCc1cc2c(N3CCn4c(nnc4C(F)(F)F)C3)nc(N3C=CC4=NCCNC4=C3)nc2s1 [Example 1-133, 6-[6-Propyl-4-(3-trifluoromethyl-5,6-dihydro-8H-[1,2,4]triazolo[4,3-a]pyrazin-7-yl)thieno[2,3-d]pyrimidin-2-yl]-2,3,4,6-tetrahydro-pyrido[3,4-b]pyrazine] | 6.84
CCCc1cc2c(N3CCn4c(nnc4C(F)(F)F)C3)nc(NC[C@H]3CCN(C(C)=O)C3)nc2s1 [Example 8-22, 1-((R)-3-{[6-Propyl-4-(3-trifluoromethyl-5,6-dihydro-8H-[1,2,4]triazolo[4,3-a]pyrazin-7-yl)-thieno[2,3-d]pyrimidin-2-ylamino]-methyl}-pyrrolidin-1-yl)-ethanone] | 6.66
CCC(=O)c1cc2c(N3CCn4c(nnc4C(F)(F)F)C3)nc(OCCC(=O)O)nc2s1 [Example 9-61, 3-[6-Propionyl-4-(3-trifluoromethyl-5,6-dihydro-8H-[1,2,4]triazolo[4,3-a]pyrazin-7-yl)-thieno[2,3-d]pyrimidin-2-yloxy]-propionic acid] | < 5.00
